From patent US9233915B2, “Polyunsaturated fatty acid monoglycerides, derivatives, and uses thereof” (SCF PHARMA INC., priority 2007, dated 2016)

Experiments:
[1] = system: HCT116 human colon cancer cell line; assay: cell growth assay (trypan blue cell count) on HCT116; type: cell-based; settings: HCT-116, 48 h, read-out: growth inhibition of the cancer cells
Protocol: (§1) The A549 and HCT-116 cells were maintained in RPMI 1640 or McCoy's 5A (Wisent, St-Bruno, QC, Canada) containing 10% FBS and 10 units/ml penicillin, 100 μg/ml streptomycin. Cells were grown in a 5% CO2 incubator at 37° C. Cells were untreated or treated with SCF compounds
(§2) A predefined number of either A549 or HCT-116 cells were allowed to grow in 24 wells plates (1×10^4 cells/well) for 3 days until cells reached 70% confluence. Then, cells were starved in RPMI or McCoy's 5A medium without FBS for 8 h. Then, the culture medium was replaced with RPMI or McCoy's 5A+0.2% FBS and 3 μM of test compounds were added to each well. Culture media were changed every 24 h and cells were treated for 48 h. After 48, the medium was removed from the culture plates and 0.05% trypsin-EDTA was used to detach the cells from the surface of the culture plates. The harvested cells were counted, both the viable and dead ones, using a Countess Automated Cell Counter (Invitrogen Inc.). Briefly, for each condition an appropriated cell dilution was prepared from the harvested cells and an aliquot was mixed with an equal volume of 0.4% trypan blue, and 10 μl was transferred into each side of a Countess™ chamber slide. All concentrations tested were performed in triplicata and were representative of 5 independent experiments.

HCT-116 cells = assay: in vivo tumor xenograft, HCT-116 in CD-1 nude mice; settings: per os 618 mg/kg daily from the day after the tumor reach; vs control (corn oil)
Protocol: In vivo tumor xenograft experiments. Male and female CD-1 nude mice were obtained from Charles River Laboratories (Montreal, QC, Canada). All studies involving mice were approved by the institutional animal care committee. Human A549 or HCT-116 xenografts were established in 4-week-old CD-1 nude mice. Mice were subcutaneously inoculated with 0.2 ml of a solution of 1×10^6 A549 or HCT-116 cells on the right flank. Mice were randomly assigned into 2 groups, control (untreated) and compound 1, 5 or 6 treated (n=6 per group). […] Tumor volumes (V) were calculated using the formula: V=(a×b2)/2, where “a” is the largest superficial diameter and “b” the smallest.

[2] = system: A549 human lung cancer cell line; assay: cell growth assay (trypan blue cell count) on A549; type: cell-based; settings: 48 h, read-out: growth inhibition of the cancer cells
Protocol: as §1, §2

A549 cells = assay: in vivo tumor xenograft, A549 in CD-1 nude mice; settings: per os 618 mg/kg daily from the day after cell inoculation; vs control (corn oil)
Protocol: In vivo tumor xenograft experiments. Male and female CD-1 nude mice were obtained from Charles River Laboratories (Montreal, QC, Canada). All studies involving mice were approved by the institutional animal care committee. Human A549 or HCT-116 xenografts were established in 4-week-old CD-1 nude mice. Mice were subcutaneously inoculated with 0.2 ml of a solution of 1×10^6 A549 or HCT-116 cells on the right flank. Mice were randomly assigned into 2 groups, control (untreated) and compound 1, 5 or 6 treated (n=6 per group). Compound 1, 5 or 6 were administrated per os (618 mg/kg) daily following cell inoculation. Tumor volumes (V) were calculated using the formula: V=(a×b2)/2, where “a” is the largest superficial diameter and “b” the smallest.

[3] = human, in vivo
Protocol: Controlled amount of boiled pasta was eaten after the 4 h time point. An initial blood sample (400 μl) was collected using a lancet at a fingertip into heparin tubes followed by samples at 1, 2, 3, 4, 5, 6, 7 and 8 hour after ingestion. Plasma was separated and immediately analysed for fatty acid composition.
The relative bioavailability of fatty acids from composition 2 compared to fish oil is calculated with the formula:
The AUC (calculates area under the curve for concentration vs. time data) is calculated using linear trapezoidal rule. […] The relative bioavailability of compound 1 and compound 5 is calculated with the same formula:

Row | Structure (SMILES) | inhibition at 3 µM [1] [%] | tumor progression (tumor volume) (HCT-116 cells) | inhibition at 3 µM [2] [%] | tumor progression (tumor volume) (A549 cells) | relative bioavailability of compound 1 compared to compound 5 [3]
1 | CC/C=C\C/C=C\C/C=C\C/C=C\C/C=C\CCCC(=O)OCC(O)CO (stereo not shown) [compound 6] | > 50 | tumor progression was immediately stopped and tumor volume slightly decrease over time | – | – | –
2 | CC/C=C\C/C=C\C/C=C\C/C=C\C/C=C\C/C=C\CCC(=O)OCC(O)CO (stereo not shown) [compound 5] | – | – | > 50 | tumor progression was significantly reduced | –
3 | CC/C=C\C/C=C\C/C=C\C/C=C\C/C=C\CCCCCC(=O)OCC(O)CO (stereo not shown) [compound 1] | > 50 | tumor progression was immediately stopped and tumor volume significantly decrease over time | – | – | 2.20
